These results are taken from ChEMBL document CHEMBL3045192, “Medicinal chemistry of polycyclic cage compounds in drug discovery research” (Med Chem Res, 2008).

Assay [1] concerns Human alphaherpesvirus 2. Put plainly: Antiviral activity against Human herpesvirus 2. The assay is classed as functional, organism-based.
The test system of assay [2] is Influenza A virus. Put plainly: Antiviral activity against Influenza A virus A2/Taiwan. The assay is classed as functional, organism-based.

Activity calls are given as the source filed them. The rule behind the calls is not given here.

In the case of `NC1C2C3CC4C5CC(C42)C1(c1ccccc1)C53` (racemic), the result in assay [1] and in assay [2] was Active.
